Test results published in patent US5665718A, “Imidazodiazepines” (Hoffmann-La Roche Inc., priority 1994, dated 1997).
Where two headings read alike, the source gives them in different places.

What was measured:
[1] = molecular target: central benzodiazepine receptors; assay: Affinity to central benzodiazepine receptors: inhibition of binding of tritiated flumazenil in rat cortex; conditions: in vitro
Experimental: The affinity of compounds of general formula I to the central benzodiazepine receptors was established in vitro according to the methods described in Nature 294, 763-765 (1981) and J. Neurochemistry 37, 714-722 (1981). According to these methods, the inhibition of the binding of tritiated flumazenil to the specific benzodiazepine receptors in the cortex of rats by the respective test substances is determined. The IC50 ("50% inhibiting concentration") denotes that concentration of the respective test substance which brings about a 50 per cent inhibition of the specific binding of tritiated flumazenil to the specific benzodiazepine receptors in the cortex of rats.

[2] = Rotating rod test (sedative/muscle relaxant properties), i.v.; assay type: in vivo; conditions: Mus musculus, iv, mice
Experimental: The sedative/muscle relaxant properties of the compounds of formula I in accordance with the invention can be determined, for example, in the rotating rod test. Mice weighing 19-21 g are used for this test. They have free access to feed and drinking water up to 1 hour before the beginning of the test. They are brought into the test laboratory at least 30 minutes before the test. In the rotating rod test the animals are placed on a horizontally arranged, smooth metal rod having a diameter of 3 cm, which is rotated at 2 revolutions per minute. Initially, the animals are given the opportunity of familiarizing themselves with the test situation for 30 seconds. Subsequently, those animals which succeed in remaining on the rod for at least 1 minute are selected. These animals are then given the test preparations intravenously in different dosages. At various points in time it is then determined whether the animals are able to remain on the rod for a minimum period (minimum period: 10 seconds; from 5 minutes after administration: 1 minute.). That dosages at which 50% of the animals are capable of remaining on the rod (ED 50) is determined.

[3] = Fatalities after i.v. administration to rats; assay type: in vivo; conditions: 32 and 100 mg/kg i.v.
[4] = Fatalities after i.v. administration to mice; assay type: in vivo; conditions: 32 and 100 mg/kg i.v.
[5] = 15 s, 15 sec after administration, read-out: Rotating rod test, ED50, 15 sec after administration
[6] = 0.5 min, 30 sec after administration, read-out: Rotating rod test, ED50, 30 sec after administration
[7] = 1 min, 60 sec after administration, read-out: Rotating rod test, ED50, 60 sec after administration
[8] = 2 min, 2 min after administration, read-out: Rotating rod test, ED50, 2 min after administration
[9] = 5 min, 5 min after administration, read-out: Rotating rod test, ED50, 5 min after administration
[10] = 0.25 h, 15 min after administration, read-out: Rotating rod test, ED50, 15 min after administration
[11] = 0.5 h, 30 min after administration, read-out: Rotating rod test, ED50, 30 min after administration
[12] = 1 h, 60 min after administration, read-out: Rotating rod test, ED50, 60 min after administration

| Compound | IC50 [1] | ED50 [2, 5] | ED50 [2, 6] | ED50 [2, 7] | ED50 [2, 8] | ED50 [2, 9] | ED50 [2, 10] | ED50 [2, 11] | ED50 [2, 12] | fatalities [3] | fatalities [4] |
| --- | --- | --- | --- | --- | --- | --- | --- | --- | --- | --- | --- |
| C=CCN(CC=C)Cc1nc(-c2ncn3c2[C@@H]2CCN2C(=O)c2c-3ccc(F)c2Cl)no1 [E, (S)-1-(5-diallylaminomethyl-1,2,4-oxadiazol-3-yl)-8-chloro-7-fluoro-12,12a-dihydro-9H,11H-azeto[2,1-c]imidazo[1,5-a][1,4]benzodiazepin-9-one] | 10 nM | 0.2 mg/kg | 0.3 mg/kg | 0.3 mg/kg | 0.4 mg/kg | 0.8 mg/kg | 3.9 mg/kg | ≥ 10 mg/kg | > 10 mg/kg | without fatalities occurring | without fatalities occurring |
| CCCN(CCC)Cc1nc(-c2ncn3c2CN(C)C(=O)c2cc(F)ccc2-3)no1 [D, 3-(5-dipropylaminomethyl-1,2,4-oxadiazol-3-yl)-8-fluoro-5-methyl-5,6-dihydro-4H-imidazo[1,5-a][1,4]benzodiazepin-6-one] | 3.3 nM | 0.2 mg/kg | 0.2 mg/kg | 0.3 mg/kg | 0.3 mg/kg | 0.8 mg/kg | 2.6 mg/kg | > 10 mg/kg | > 10 mg/kg | without fatalities occurring | without fatalities occurring |
| O=C1c2c(Cl)cccc2-n2cnc(-c3noc(CN4CCCCC4)n3)c2[C@@H]2CCN12 [I, (S)-8-chloro-1-[5-(piperidin-1-yl)methyl-1,2,4-oxadiazol-3-yl]-12,12a-dihydro-9H,11H-azeto[2,1-c]imidazo[1,5-a][1,4]benzodiazepin-9-one] | 4.4 nM | 0.1 mg/kg | 0.7 mg/kg | 0.7 mg/kg | 1 mg/kg | 1.1 mg/kg | 3.1 mg/kg | ≥ 10 mg/kg | > 10 mg/kg |  |  |
| CC(C)N(Cc1nc(-c2ncn3c2CN(C)C(=O)c2cc(F)ccc2-3)no1)C(C)C [P, 3-(5-diisopropylaminomethyl-1,2,4-oxadiazol-3-yl)-8-fluoro-5-methyl-5,6-dihydro-4H-imidazo[1,5-a][1,4]benzodiazepin-6-one] | 4.1 nM | 0.1 mg/kg | 0.2 mg/kg | 0.3 mg/kg | 0.7 mg/kg | 1 mg/kg | 4.3 mg/kg | ≥ 10 mg/kg | > 10 mg/kg |  |  |
| CCCN(CCC)Cc1nc(-c2ncn3c2[C@@H]2CCN2C(=O)c2sccc2-3)no1 [B, (S)-1-(5-dipropylaminomethyl-1,2,4-oxadiazol-3-yl)-11,11a-dihydro-8H,10H-azeto[1,2-a]imidazo[5,1-c]thieno[3,2-e][1,4]diazepin-8-one] | 4.3 nM | 0.1 mg/kg | 0.1 mg/kg | 0.2 mg/kg | 0.4 mg/kg | 0.7 mg/kg | 3.5 mg/kg | > 10 mg/kg | > 10 mg/kg | without fatalities occurring | without fatalities occurring |
| CCN(CC)Cc1nc(-c2ncn3c2[C@@H]2CCN2C(=O)c2sccc2-3)no1 [M, (S)-1-(5-diethylaminomethyl-1,2,4-oxadiazol-3-yl)-11,11a-dihydro-8H,10H-azeto[1,2-a]imidazo[5,1-c]thieno[3,2-e][1,4]diazepin-8-one] | 6.5 nM | 0.2 mg/kg | 0.3 mg/kg | 0.3 mg/kg | 1.1 mg/kg | 2.1 mg/kg | > 10 mg/kg | > 10 mg/kg | > 10 mg/kg |  |  |
| CCCN(CCC)Cc1nnc(-c2ncn3c2CN(C)C(=O)c2c(Cl)cccc2-3)o1 [L, 7-chloro-3-(5-dipropylaminomethyl-1,3,4-oxadiazol-2-yl)-5-methyl-5,6-dihydro-4H-imidazo[1,5-a][1,4]benzodiazepin-6-one] | 4.5 nM | 0.3 mg/kg | 0.4 mg/kg | 0.6 mg/kg | 1.5 mg/kg | 5 mg/kg | > 10 mg/kg | > 10 mg/kg | > 10 mg/kg |  |  |
| CCCCN(CCCC)Cc1nnc(-c2ncn3c2[C@@H]2CCN2C(=O)c2sccc2-3)o1 [N, (S)-1-(5-dibutylaminomethyl-1,3,4-oxadiazol-2-yl)-11,11a-dihydro-8H,10H-azeto[1,2-a]imidazo[5,1-c]thieno[3,2-e][1,4]diazepin-8-one] | 4.8 nM | 0.3 mg/kg | 0.3 mg/kg | 0.3 mg/kg | 0.6 mg/kg | 2.4 mg/kg | > 10 mg/kg | > 10 mg/kg | > 10 mg/kg |  |  |
| CCCN(CCC)Cc1nc(-c2ncn3c2CN(C)C(=O)c2c(F)cccc2-3)no1 [J, 7-fluoro-5-methyl-3-(5-dipropylaminomethyl-1,2,4-oxadiazol-3-yl)-5,6-dihydro-4H-imidazo[1,5-a][1,4]benzodiazepin-6-one] | 2.3 nM | 0.1 mg/kg | 0.2 mg/kg | 0.3 mg/kg | 0.4 mg/kg | 1.1 mg/kg | > 10 mg/kg | > 10 mg/kg | > 10 mg/kg |  |  |
| CCCN(CCC)Cc1nc(-c2ncn3c2[C@@H]2CCN2C(=O)c2c(Cl)cccc2-3)no1 [A, (S)-8-chloro-1-(5-dipropylaminomethyl-1,2,4-oxadiazol-3-yl)-12,12a-dihydro-9H,11H-azeto[2,1-c]imidazo[1,5-a][1,4]benzodiazepin-9-one] | 13 nM | 0.3 mg/kg | 0.3 mg/kg | 0.7 mg/kg | 0.8 mg/kg | 1.4 mg/kg | 2.1 mg/kg | 7.3 mg/kg | > 10 mg/kg | without fatalities occurring | without fatalities occurring |
| CCCN(CCC)Cc1nc(-c2ncn3c2CN(C)C(=O)c2ccccc2-3)no1 [F, 3-(5-dipropylaminomethyl-1,2,4-oxadiazol-3-yl)-5-methyl-5,6-dihydro-4H-imidazo[1,5-a][1,4]benzodiazepin-6-one] | 6.9 nM | 0.2 mg/kg | 0.4 mg/kg | 0.5 mg/kg | 0.9 mg/kg | ≥ 10 mg/kg | > 10 mg/kg | > 10 mg/kg | > 10 mg/kg |  |  |
| CC(C)N(Cc1nc(-c2ncn3c2CN(C)C(=O)c2ccccc2-3)no1)C(C)C [O, 3-(5-diisopropylaminomethyl-1,2,4-oxadiazol-3-yl)-5-methyl-5,6-dihydro-4H-imidazo[1,5-a][1,4]benzodiazepin-6-one] | 6.4 nM | 0.3 mg/kg | 0.5 mg/kg | 0.7 mg/kg | 1 mg/kg | 3 mg/kg | > 10 mg/kg | > 10 mg/kg | > 10 mg/kg |  |  |
| CCN(CC)Cc1nc(-c2ncn3c2CN(C)C(=O)c2c(Cl)cccc2-3)no1 [K, 7-chloro-3-(5-diethylaminomethyl-1,2,4-oxadiazol-3-yl)-5-methyl-5,6-dihydro-4H-imidazo[1,5-a][1,4]benzodiazepin-6-one] | 1.4 nM | 0.1 mg/kg | 0.3 mg/kg | 0.3 mg/kg | 0.6 mg/kg | 2 mg/kg | ≥ 10 mg/kg | ≥ 10 mg/kg | ≥ 10 mg/kg |  |  |
| CCCN(CCC)Cc1nnc(-c2ncn3c2CN(C)C(=O)c2cc(F)ccc2-3)o1 [G, 3-(5-dipropylaminomethyl-1,3,4-oxadiazol-2-yl)-8-fluoro-5-methyl-5,6-dihydro-4H-imidazo[1,5-c][1,4]benzodiazepin-6-one] | 18.3 nM | 0.3 mg/kg | 0.3 mg/kg | 0.7 mg/kg | 1.1 mg/kg | 3.6 mg/kg | ≥ 10 mg/kg | > 10 mg/kg | > 10 mg/kg |  |  |
| CCN(CC)Cc1nc(-c2ncn3c2CN(C)C(=O)c2cc(F)ccc2-3)no1 [H, 3-(5-diethylaminomethyl-1,2,4-oxadiazol-3-yl)-8-fluoro-5-methyl-5,6-dihydro-4H-imidazo[1,5-a][1,4]benzodiazepin-6-one] | 25 nM | 0.1 mg/kg | 0.2 mg/kg | 0.4 mg/kg | 0.7 mg/kg | 1.2 mg/kg | 4.3 mg/kg | 5.1 mg/kg | > 10 mg/kg |  |  |
| CN1Cc2c(-c3noc(CN4CCCCC4)n3)ncn2-c2ccc(F)cc2C1=O [C, 8-fluoro-5-methyl-3-[5-(piperidin-1-ylmethyl)-1,2,4-oxadiazol-3-yl]-5,6-dihydro-4H-imidazo[1,5-a][1,4]benzodiazepin-6-one] | 50 nM | 0.8 mg/kg | 0.8 mg/kg | 1.2 mg/kg | 1.6 mg/kg | 3.2 mg/kg | ≥ 10 mg/kg | > 10 mg/kg | > 10 mg/kg |  |  |
